Measurements published in patent publication US6680323B2, “Dihydropyrimidines and uses thereof” (Synaptic Pharmaceutical Corporation, priority 1998, dated 2004).
Structures can show the parent of a compound that is named as a salt.

Tests used:
[1] = target: T1, human α1a receptor (Homo sapiens, UniProt P35348); experiment: Radioligand binding ([3H]prazosin) at cloned human α1a receptor; settings: hα1a; membranes of transfected LM(tk−) cells, [3H]prazosin 0.5 nM; read-out: Binding affinity hα1a
T1 construct: expressed in transfected cells
T1 sequence (P35348 1-466): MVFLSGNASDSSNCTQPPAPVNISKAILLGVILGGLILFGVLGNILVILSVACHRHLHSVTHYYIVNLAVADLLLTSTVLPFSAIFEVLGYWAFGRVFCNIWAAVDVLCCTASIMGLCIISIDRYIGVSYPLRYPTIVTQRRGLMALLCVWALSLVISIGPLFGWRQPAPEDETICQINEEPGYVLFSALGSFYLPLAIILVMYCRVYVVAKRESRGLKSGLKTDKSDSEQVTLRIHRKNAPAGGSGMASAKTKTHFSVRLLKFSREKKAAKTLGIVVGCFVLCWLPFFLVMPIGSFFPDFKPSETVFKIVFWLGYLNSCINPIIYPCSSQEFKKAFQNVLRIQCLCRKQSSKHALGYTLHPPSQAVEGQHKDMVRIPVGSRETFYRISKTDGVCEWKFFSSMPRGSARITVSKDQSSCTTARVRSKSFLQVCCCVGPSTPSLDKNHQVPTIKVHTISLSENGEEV
Description: (§1) The activity of compounds at the different human receptors was determined in vitro using cultured cell lines that selectively express the receptor of interest. These cell lines were prepared by transfecting the cloned cDNA or cloned genomic DNA or constructs containing both genomic DNA and cDNA encoding the human α-adrenergic receptors as follows:
α1a Human Adrenergic Receptor
The entire coding region of α1a (1401 bp), including 400 base pairs of 5′ untranslated sequence (5′ UT) and 200 bp of 3′ untranslated sequence (3′ UT), was cloned into the KpnI site of the polylinker-modified pCEXV-3-derived eukaryotic expression vector, EXJ.RH. The construct involved ligating three partial overlapping fragments: a 5′ 0.6 kb HincII genomic clone, a central 1.8 EcoRI hippocampal cDNA clone,. and a 3′ 0.6 Kb PstI genomic clone. The hippocampal cDNA fragment overlaps with the 5′ and 3′ genomic clones so that the HincII and PstI sites at the 5′ and 3′ ends of the cDNA clone, respectively, were utilized for ligation. This full-length clone was cloned into the KpnI site of the expression vector, using the 5′ and 3′ KpnI sites of the fragment, derived from vector (i.e., pBluescript) and 31-untranslated sequences, respectively. Stable cell lines were selected as described above. The stable cell line expressing the human α1a receptor used herein was designated L-α1C (old nomenclature) and was deposited with the American Type Culture Collection, 12301 Parklawn Drive, Rockville, Md. 20852, U.S.A. under the provisions of the Budapest Treaty for the International Recognition of the Deposit of Microorganisms for the Purposes of Patent Procedure. The cell line expressing the human α1a receptor was accorded Accession No. CR 11140, on Sep. 25, 1992.
(§2) Radioligand Binding Assays for α1 Receptors
(§3) Transfected cells from culture flasks were scraped into 5 ml of 5 mM Tris-HCl, 5 mM EDTA, pH 7.5, and lysed by sonication. The cell lysates were centrifuged at 1000 rpm for 5 min at 4° C., and the supernatant was centrifuged at 30,000×g for 20 min at 4° C. The pellet was suspended in 50 mM Tris-HCl, 1 mM MgCl2, and 0.1% ascorbic acid at pH 7.5. Binding of the α1 antagonist [^3H]prazosin (0.5 nM, specific activity 76.2 Ci/mmol) to membrane preparations of LM(tk−) cells was done in a final volume of 0.25 ml and incubated at 37° C. for 20 min. Nonspecific binding was determined in the presence of 10 μM phentolamine. The reaction was stopped by filtration through GF/B filters using a cell harvester. Inhibition experiments, routinely consisting of 7 concentrations of the tested compounds, were analyzed using a non-linear regression curve-fitting computer program to obtain Ki values.

[2] = target: T2, human α1d receptor (Homo sapiens, UniProt P25100); experiment: Radioligand binding ([3H]prazosin) at cloned human α1d receptor; settings: second column headed hα1a (c3); membranes of transfected LM(tk−) cells, [3H]prazosin 0.5 nM; read-out: Binding affinity hα1a
T2 construct: expressed in transfected cells
T2 sequence (P25100 1-572): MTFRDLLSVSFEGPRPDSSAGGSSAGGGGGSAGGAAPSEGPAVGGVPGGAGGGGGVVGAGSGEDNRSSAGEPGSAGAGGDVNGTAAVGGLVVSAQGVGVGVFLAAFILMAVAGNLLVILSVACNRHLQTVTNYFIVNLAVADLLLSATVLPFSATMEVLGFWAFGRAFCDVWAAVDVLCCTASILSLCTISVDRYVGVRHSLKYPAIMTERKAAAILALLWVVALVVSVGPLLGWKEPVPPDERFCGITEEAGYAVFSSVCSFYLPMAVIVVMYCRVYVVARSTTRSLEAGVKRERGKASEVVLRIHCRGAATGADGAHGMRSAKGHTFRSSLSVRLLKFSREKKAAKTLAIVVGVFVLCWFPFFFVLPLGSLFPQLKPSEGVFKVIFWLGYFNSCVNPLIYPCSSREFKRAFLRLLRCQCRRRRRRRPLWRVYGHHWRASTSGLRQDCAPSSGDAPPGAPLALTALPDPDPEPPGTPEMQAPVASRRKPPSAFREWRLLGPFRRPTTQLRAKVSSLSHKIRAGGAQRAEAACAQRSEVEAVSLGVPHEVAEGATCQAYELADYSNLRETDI
Description: as §1
α1d Human Adrenergic Receptor
The entire coding region of α1d (1719 bp), including 150 base pairs of 5′ untranslated sequence (5′ UT) and 300 bp of 3′ untranslated sequence (3′ UT), was cloned into the BamHI and ClaI sites of the polylinker-modified eukaryotic expression vector pCEXV-3, called EXJ.HR. The construct involved the ligation of partial overlapping human lymphocyte genomic and hippocampal cDNA clones: 5′ sequence were contained on a 1.2 kb SmaI-XhoI genomic fragment (the vector-derived BamHI site was used for subcloning instead of the internal ninsert-derived SmaI site) and 3′ sequences were contained on an 1.3 kb XhoI-ClaI cDNA fragment (the ClaI site was from the vector polylinker). Stable cell lines were obtained by cotransfection with the plasmid α1A/EXJ (expression vector containing the α1a receptor gene (old nomenclature)) and the plasmid pGCcos3neo (plasmid containing the aminoglycoside transferase gene) into LM(tk−) cells using calcium phosphate technique. The cells were grown, in a controlled environment (37° C., 5% CO2), as monolayers in Dulbecco's modified Eagle's Medium (GIBCO, Grand Island, N.Y.) containing 25 mM glucose and supplemented with 10% bovine calf serum, 100 units/ml penicillin g, and 100 μg/ml streptomycin sulfate. Stable clones were then selected for resistance to the antibiotic G-418 (1 mg/ml), and membranes were harvested and assayed for their ability to bind [^3H]prazosin as described below (see “Radioligand Binding assays”).
The cell line expressing the human α1d receptor used herein was designated L-α1A (old nomenclature) and was deposited with the American Type Culture Collection, 12301 Parklawn Drive, Rockville, Md. 20852, U.S.A. under the provisions of the Budapest Treaty for the International Recognition of the Deposit of Microorganisms for the Purposes of Patent Procedure. The cell line expressing the human α1d receptor, was accorded ATCC Accession No. CRL 11138, and was deposited on Sep. 25, 1992.
as §2, §3

Compound	Ki [1] [nM]	Ki [2] [nM]
O=C1OCC2=C1C(c1ccc(F)c(F)c1)N(C(=O)NCCCN1CCC(c3ccccn3)CC1)C(=O)N2 (single isomer, unassigned; (+)) [Compound 8, (+)-1-3-{[4-(3,4-Difluorophenyl)-2,5-dioxo-1,2,5,7-tetrahydro-4H-furo[3,4-d]-pyrimidine-3-carbonyl]amino}-propyl-4-(2-pyridyl)-piperidine]	3	1970
COCC1=C(C(=O)OC)[C@H](c2ccc(F)c(F)c2)N(C(=O)NCCCO)C(=O)N1 [Compound 1, (+)-1,2,3,6-Tetrahydro-1-(3-hydroxypropyl)carboxamido-5-methoxycarbonyl-4-methoxymethyl-6-(3,4-difluorophenyl)-2-oxo-pyrimidine]	260	> 50000
COCC1=C(C(=O)OC)[C@H](c2ccc(F)c(F)c2)N(C(=O)NCCCN2CCC(c3cccc[n+]3[O-])CC2)C(=O)N1 [Compound 2, (+)-1,2,3,6-Tetrahydro-1-{N-[4-(2-pyridyl)piperidin-1-yl]propyl}carboxamido-5-methoxycarbonyl-4-methoxymethyl-6-(3,4-difluorophenyl)-2-oxopyrimidine-pyridine-N-oxide hydrochloride]	0.3	3700
COCC1=C(C(=O)OC)[C@H](c2ccc(F)c(F)c2)N(C(=O)NCCC[n+]2ccc(-c3ccccn3)cc2)C(=O)N1 [Compound 3, 4-(2-Pyridyl)-1-{3-[5-carboxymethyl-4-methoxymethyl-2-oxo-6(S)-(3,4-difluorphenyl)-1,2,3,6-tetrahydropyrimidin-1-yl]carboxyaminopropyl}pyridinium chloride]	212	> 5000
COC(=O)C1=C(CO)NC(=O)N(C(=O)NCCCN2CCC(c3ccccn3)CC2)[C@H]1c1ccc(F)c(F)c1 [Compound 7, (+)-1,2,3,6-Tetrahydro-1-{N-[4-(2-pyridyl)piperidin-1-yl]propyl}carboxamido-5-methoxycarbonyl-4-hydroxymethyl-6-(3,4-difluorophenyl)-2-oxopyrimidine]	0.8	1200
O=C(O)CCNC(=O)N1C(=O)NC2=C(C(=O)OC2)[C@@H]1c1ccc(F)c(F)c1 [Compound 9]	> 500	> 5000
